One assay concerns the target T1, plasma kallikrein (Homo sapiens, UniProt P03952).
T1 construct: from tissue; host or cells: sodium citrate collected human plasma (78% final)
In words: Neat human plasma assay: contact pathway-activated (FXIIa) plasma, PFR-AMC substrate. Format: biochemical. The settings on record: citrated human plasma (78% final), 10 nM human FXIIa, 100 μM PFR-AMC, room temperature. The method, boiled down:
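Compounds spiked into citrated human or rat plasma (78% final), or plasma taken from orally or IV dosed rats, activated with 10 nM human FXIIa; 100 μM PFR-AMC cleavage read at 360/480 nm for 5 min, room temperature. Rates vs concentration fit to 4-parameter IC50/IC90 equation.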

Assay [1] has as its target human activated kallikrein enzyme (Homo sapiens, UniProt P03952). Briefly: Inhibition of activated plasma kallikrein, fluorogenic peptide substrate (PFR-AMC) assay, 500 pM enzyme format. Format: biochemical. The settings on record: 500 pM activated kallikrein, 300 uM PFR-AMC, 30 min preincubation, 10 min reaction, room temperature; read-out: Primary Dose Response Assay: Average EC50. The method, boiled down: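 500 pM enzyme preincubated 30 min at room temperature with inhibitor in 20 mM Tris pH 7.5, 150 mM NaCl, 1 mM EDTA, 0.1% PEG-400, 0.1% Triton X-100. Reaction started with 300 uM PFR-AMC and run 10 min at room temperature. Fluorescence read at 380 nm excitation/460 nm emission.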

Chain of human activated kallikrein enzyme (P03952 391-638 limits assumed): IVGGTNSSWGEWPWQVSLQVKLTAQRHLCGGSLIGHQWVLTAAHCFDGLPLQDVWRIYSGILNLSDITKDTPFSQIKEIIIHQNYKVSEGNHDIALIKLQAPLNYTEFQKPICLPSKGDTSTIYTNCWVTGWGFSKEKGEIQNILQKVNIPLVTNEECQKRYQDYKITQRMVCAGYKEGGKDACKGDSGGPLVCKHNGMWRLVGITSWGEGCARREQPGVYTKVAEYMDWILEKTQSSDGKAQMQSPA
Chain of human activated kallikrein enzyme (P03952 20-390 partner limits assumed): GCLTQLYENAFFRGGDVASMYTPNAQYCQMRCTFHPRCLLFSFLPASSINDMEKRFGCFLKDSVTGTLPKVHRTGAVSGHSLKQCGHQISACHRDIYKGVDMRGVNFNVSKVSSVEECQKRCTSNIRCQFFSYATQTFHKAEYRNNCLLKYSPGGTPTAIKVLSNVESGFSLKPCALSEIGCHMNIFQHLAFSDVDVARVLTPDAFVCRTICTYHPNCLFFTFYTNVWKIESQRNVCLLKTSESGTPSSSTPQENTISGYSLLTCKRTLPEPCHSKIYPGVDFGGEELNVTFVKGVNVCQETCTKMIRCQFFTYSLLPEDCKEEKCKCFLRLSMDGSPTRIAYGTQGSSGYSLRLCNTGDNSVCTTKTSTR
T1 sequence (P03952 391-638 limits assumed): as the sequence (P03952 391-638 limits assumed) above
T1 sequence (P03952 20-390 partner limits assumed): as the sequence (P03952 20-390 partner limits assumed) above

Consider `Cc1cc(N2CC(=O)N(C)C2=O)c2nc(COc3ccc4c(N5CC6(COC6)C5)cc([C@H]5C[C@@H]5c5nccc(C)n5)nc4c3)cn2c1` [Example 96, 3-methyl-1-(6-methyl-2-(((2-((1S,2S)-2-(4-methylpyrimidin-2-yl)cyclopropyl)-4-(2-oxa-6-azaspiro[3.3]heptan-6-yl)quinolin-7-yl)oxy)methyl)imidazo[1,2-a]pyridin-8-yl)imidazolidine-2,4-dione], for which, at plasma kallikrein, the IC90 was at most 400 nM. For the same compound, the EC50 in assay [1] was at most 1 nM.

`Cc1ccnc([C@H]2C[C@@H]2c2cc(NCC(C)(C)O)c3ccc(OCc4cn5cc(C6CC6)cc(N6CC(=O)N(C)C6=O)c5n4)cc3n2)n1` [Example 97, 1-(6-cyclopropyl-2-(((4-((2-hydroxy-2-methylpropyl)amino)-2-((1S,2S)-2-(4-methylpyrimidin-2-yl)cyclopropyl)quinolin-7-yl)oxy)methyl)imidazo[1,2-a]pyridin-8-yl)-3-methylimidazolidine-2,4-dione] came in with an IC90 against plasma kallikrein of at most 400 nM. Moreover, the EC50 in assay [1] was at most 1 nM.

As for `Cc1ccnc([C@H]2C[C@@H]2c2cc(N3CC4(COC4)C3)c3ccc(N(C)Cc4cn5cc(C6CC6)cc(N6CC(=O)N(C)C6=O)c5n4)cc3n2)n1` [Example 98, 1-(6-cyclopropyl-2-((methyl(2-((1S,2S)-2-(4-methylpyrimidin-2-yl)cyclopropyl)-4-(2-oxa-6-azaspiro[3.3]heptan-6-yl)quinolin-7-yl)amino)methyl)imidazo[1,2-a]pyridin-8-yl)-3-methylimidazolidine-2,4-dione], the 90% effect concentration (IC90) on plasma kallikrein is at most 400 nM. Also, in assay [1], the EC50 was at most 1 nM.

In turn, `Cc1ccnc([C@H]2C[C@@H]2c2cc(N3CC4(COC4)C3)c3ccc(NC(C)c4cn5cc(C6CC6)cc(N6CC(=O)N(C)C6=O)c5n4)cc3n2)n1` (stereo partly drawn) [Example 99, 1-(6-cyclopropyl-2-(1-((2-((1S,2S)-2-(4-methylpyrimidin-2-yl)cyclopropyl)-4-(2-oxa-6-azaspiro[3.3]heptan-6-yl)quinolin-7-yl)amino)ethyl)imidazo[1,2-a]pyridin-8-yl)-3-methylimidazolidine-2,4-dione] displayed an IC90 at plasma kallikrein of 400 to 1500 nM. In addition, in assay [1], the EC50 is 1 to 10 nM.

At plasma kallikrein, `Cc1ccnc([C@H]2C[C@@H]2c2cc(N(C)CC(C)(C)O)c3ccc(NCc4cn5cc(C6CC6)cc(N6CC(=O)N(C)C6=O)c5n4)cc3n2)n1` [Example 100, 1-(6-cyclopropyl-2-(((4-((2-hydroxy-2-methylpropyl)(methyl)amino)-2-((1S,2S)-2-(4-methylpyrimidin-2-yl)cyclopropyl)quinolin-7-yl)amino)methyl)imidazo[1,2-a]pyridin-8-yl)-3-methylimidazolidine-2,4-dione] gave an IC90 of at most 400 nM. For the same compound, in assay [1], the EC50 was at most 1 nM.

On plasma kallikrein, `Cc1ccnc([C@H]2C[C@@H]2c2cc(N3CC4(COC4)C3)c3ccc(N[C@H](C)c4cn5cc(C6CC6)cc(N6CC(=O)N(C)C6=O)c5n4)cc3n2)n1` [Example 101, 1-(6-cyclopropyl-2-((R)-1-((2-((1S,2S)-2-(4-methylpyrimidin-2-yl)cyclopropyl)-4-(2-oxa-6-azaspiro[3.3]heptan-6-yl)quinolin-7-yl)amino)ethyl)imidazo[1,2-a]pyridin-8-yl)-3-methylimidazolidine-2,4-dione] had an IC90 of at most 400 nM. Moreover, the EC50 in assay [1] is at most 1 nM.

Take `Cc1ccnc([C@H]2C[C@@H]2c2cc(N3CC4(COC4)C3)c3cnc(OCc4cn5cc(C6CC6)cc(N6CC(=O)N(C)C6=O)c5n4)cc3n2)n1` [Example 103, 1-(6-cyclopropyl-2-(((2-((1S,2S)-2-(4-methylpyrimidin-2-yl)cyclopropyl)-4-(2-oxa-6-azaspiro[3.3]heptan-6-yl)-1,6-naphthyridin-7-yl)oxy)methyl)imidazo[1,2-a]pyridin-8-yl)-3-methylimidazolidine-2,4-dione]: the IC90 at plasma kallikrein is at most 400 nM. Moreover, the EC50 in assay [1] is at most 1 nM.

`Cc1ccnc([C@H]2C[C@@H]2C2=NS(=O)(=O)c3ccc(NCc4cn5cc(C6CC6)cc(F)c5n4)cc3N2)n1` [Example 105, 6-(((6-cyclopropyl-8-fluoroimidazo[1,2-a]pyridin-2-yl)methyl)amino)-3-((1S,2S)-2-(4-methylpyrimidin-2-yl)cyclopropyl)-4H-benzo[e][1,2,4]thiadiazine 1,1-dioxide] returned an IC90 against plasma kallikrein of at most 400 nM. In addition, the EC50 in assay [1] is at most 1 nM.

As for `Cc1ccnc([C@H]2C[C@@H]2c2cc(N3CC4(COC4)C3)c3ccc(NCc4cc5cc(C6CC6)cc(N6CC(=O)N(C)C6=O)n5n4)cc3n2)n1` [Example 107, 1-(5-cyclopropyl-2-(((2-((1S,2S)-2-(4-methylpyrimidin-2-yl)cyclopropyl)-4-(2-oxa-6-azaspiro[3.3]heptan-6-yl)quinolin-7-yl)amino)methyl)pyrazolo[1,5-a]pyridin-7-yl)-3-methylimidazolidine-2,4-dione], the IC90 against plasma kallikrein is at most 400 nM. Further, the EC50 in assay [1] is at most 1 nM.

On plasma kallikrein, `Cc1ccnc([C@H]2C[C@@H]2c2cc(N3CC4(COC4)C3)c3ccc(OCc4cc5cc(C6CC6)cc(N6CC(=O)N(C)C6=O)n5n4)cc3n2)n1` [Example 108, 1-(5-cyclopropyl-2-(((2-((1S,2S)-2-(4-methylpyrimidin-2-yl)cyclopropyl)-4-(2-oxa-6-azaspiro[3.3]heptan-6-yl)quinolin-7-yl)oxy)methyl)pyrazolo[1,5-a]pyridin-7-yl)-3-methyl imidazolidine-2,4-dione] returned an IC90 of at most 400 nM. Also, the concentration for a half-maximal effect (EC50) in assay [1] was at most 1 nM.
